We go through 5 cell lines from the supplement of paper PMC10307832.

Common to all, as to assay: relative viability (nuclei count vs DMSO), 5 days (fraction); higher = more cells survive
Compound in assay [1]: CN1CCN(CC1)C2=CC(=C(C=C2)NC3=NC(=C(S3)C(=O)C4=C(C=CC=C4Cl)Cl)N)OC [XMD14-99] + N=C(N)NC(=N)NCCc1ccccc1 [Phenformin] (partner 250 µM)
In a few lines:
(§1)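 For relative viability, nuclei counts in treated wells were divided by those in vehicle wells. Lung cancer cell lines had been pin-tool dosed in 1536-well plates the day after seeding and cultured for 5 days, then fixed and stained in one step (final 0.05% Triton X-100, 1% formaldehyde, 1 ug/ml Hoechst) and imaged at 4×. Doses were one drug alone or a fixed anchor-drug dose plus five library-drug doses (not always all listed) in √10 steps, and values are duplicate-plate medians.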

Compound in assay [2]: CN1CCN(CC1)C2=CC(=C(C=C2)NC3=NC(=C(S3)C(=O)C4=C(C=CC=C4Cl)Cl)N)OC [XMD14-99] + CCNC(=O)c1noc(-c2cc(C(C)C)c(O)cc2O)c1-c1ccc(CN2CCOCC2)cc1 [Luminespib] (partner 0.01 µM)
In a few lines: as §1

Compound in assay [3]: N[C@@H]1CCCN(c2c(/C=C3\SC(=O)NC3=O)cccc2-c2ccccc2)C1 [AZD1208] + C[C@]1(O)C[C@@H](c2nc(-c3ccc4ccc(-c5ccccc5)nc4c3)c3c(N)nccn32)C1 [Linsitinib] (partner 1 µM)
In a few lines: as §1

Compound in assay [4]: CN1CCN(CC1)C2=CC(=C(C=C2)NC3=NC(=C(S3)C(=O)C4=C(C=CC=C4Cl)Cl)N)OC [XMD14-99] + Nc1ncn([C@H]2C[C@H](O)[C@@H](CO)O2)c(=O)n1 [Decitabine] (partner 2 µM)
In a few lines:
as §1

On to HCC-827, for which the relative viability was 0.406 in assay [1] (first compound 0.08 µM); 0.37 in assay [1] (first compound 0.8 µM); 0.377 in assay [1] (first compound 2.53 µM); 0.308 in assay [1] (first compound 8 µM); 0.492 in assay [2] (first compound 0.08 µM); 0.669 in assay [2] (first compound 0.8 µM). Besides, the relative viability in assay [2] (first compound 2.53 µM) turned out to be 0.595; in assay [2] (first compound 8 µM) it was 0.617; in assay [3] (first compound 0.08 µM) it was 0.965; in assay [3] (first compound 0.253 µM), 1.03; in assay [3] (first compound 0.8 µM) it was 1.01; in assay [3] (first compound 2.53 µM), 1.01. Besides, the relative viability was 1.02 in assay [3] (first compound 8 µM); 0.354 in assay [4] (first compound 0.08 µM); 0.273 in assay [4] (first compound 0.8 µM); 0.296 in assay [4] (first compound 2.53 µM); 0.306 in assay [4] (first compound 8 µM).

As for NCI-H650, the relative viability in assay [1] (first compound 0.08 µM) came to 0.497; in assay [1] (first compound 0.8 µM) it was 0.465; in assay [1] (first compound 2.53 µM) it was 0.423; in assay [1] (first compound 8 µM), 0.364; in assay [2] (first compound 0.08 µM), 0.733; in assay [2] (first compound 0.8 µM), 0.873. Besides, the relative viability amounted to 0.79 in assay [2] (first compound 2.53 µM); 0.722 in assay [2] (first compound 8 µM); 0.877 in assay [3] (first compound 0.08 µM); 0.83 in assay [3] (first compound 0.253 µM); 0.784 in assay [3] (first compound 0.8 µM); 0.482 in assay [3] (first compound 2.53 µM). Also, the relative viability amounted to 0.71 in assay [3] (first compound 8 µM); 0.272 in assay [4] (first compound 0.08 µM); 0.318 in assay [4] (first compound 0.8 µM); 0.292 in assay [4] (first compound 2.53 µM); 0.319 in assay [4] (first compound 8 µM).

Consider NCI-H2085, for which the relative viability in assay [1] (first compound 0.08 µM) was found to be 0.668; in assay [1] (first compound 0.8 µM) it was 0.68; in assay [1] (first compound 2.53 µM), 0.681; in assay [1] (first compound 8 µM), 0.572; in assay [2] (first compound 0.08 µM), 0.429; in assay [2] (first compound 0.8 µM), 0.41. Besides, the relative viability was 0.377 in assay [2] (first compound 2.53 µM); 0.368 in assay [2] (first compound 8 µM); 0.913 in assay [3] (first compound 0.08 µM); 1.04 in assay [3] (first compound 0.253 µM); 0.892 in assay [3] (first compound 0.8 µM); 0.939 in assay [3] (first compound 2.53 µM). Moreover, the relative viability in assay [3] (first compound 8 µM) amounted to 0.946; in assay [4] (first compound 0.08 µM) it was 0.561; in assay [4] (first compound 0.8 µM) it was 0.529; in assay [4] (first compound 2.53 µM), 0.523; in assay [4] (first compound 8 µM), 0.45.

Turning to NCI-H596, the relative viability in assay [1] (first compound 0.08 µM) was 0.799; in assay [1] (first compound 0.8 µM), 0.883; in assay [1] (first compound 2.53 µM), 0.733; in assay [1] (first compound 8 µM), 0.784; in assay [2] (first compound 0.08 µM), 1.05; in assay [2] (first compound 0.8 µM) it was 1.11. The relative viability in assay [2] (first compound 2.53 µM) is 0.917; in assay [2] (first compound 8 µM), 0.983; in assay [3] (first compound 0.08 µM), 0.97; in assay [3] (first compound 0.253 µM), 1.02; in assay [3] (first compound 0.8 µM), 0.975; in assay [3] (first compound 2.53 µM), 1.01. Further, the relative viability in assay [3] (first compound 8 µM) was found to be 0.714; in assay [4] (first compound 0.08 µM), 1.03; in assay [4] (first compound 0.8 µM), 0.943; in assay [4] (first compound 2.53 µM), 0.858; in assay [4] (first compound 8 µM) it was 0.964.

For SK-LU-1, the relative viability turned out to be 0.523 in assay [1] (first compound 0.08 µM); 0.563 in assay [1] (first compound 0.8 µM); 0.456 in assay [1] (first compound 2.53 µM); 0.322 in assay [1] (first compound 8 µM); 0.197 in assay [2] (first compound 0.08 µM); 0.201 in assay [2] (first compound 0.8 µM). Moreover, the relative viability was 0.235 in assay [2] (first compound 2.53 µM); 0.184 in assay [2] (first compound 8 µM); 1 in assay [3] (first compound 0.08 µM); 1.21 in assay [3] (first compound 0.253 µM); 1.07 in assay [3] (first compound 0.8 µM); 1.21 in assay [3] (first compound 2.53 µM). In addition, the relative viability in assay [3] (first compound 8 µM) came out at 0.795; in assay [4] (first compound 0.08 µM), 0.606; in assay [4] (first compound 0.8 µM), 0.707; in assay [4] (first compound 2.53 µM), 0.666; in assay [4] (first compound 8 µM), 0.412.
